# Data as given in patent publication US20240076347A1, “METHODS FOR PREVENTING FUNGAL INFECTIONS” (Cidara Therapeutics, Inc., priority 2016, published 2024).
# Where “and” joins values, the source holds several entries; their conditions need not be identical. Equal values may be shown once. Entries after “also recorded” stand apart in the source; their conditions may differ. Read-outs that look alike come from different tables or passages of the source. Numbered stars: 1 amine (or outer) side, 2 acyl side, 3 side chain; on linkers, the order of the positions; unused ones are H or OH. Bridge positions count the residues as written; N and C are the ends. Square brackets hold non-standard residues; d marks the D form. Peptide text beside a SMILES is read from it. * marks the point of attachment. pTerphenylCO(4''-OnC5H11) = CCCCCOc1ccc(-c2ccc(-c3ccc(C(=O)*)cc3)cc2)cc1; Orn(4R-OH,5R-OH) = O=C([C@H](C[C@@H](O)[C@@H](O)N[*:3])N[*:1])[*:2]; hTyr(3S-OH,4S-OH) = N[C@H](C(=O)O)[C@H](O)[C@@H](O)c1ccc(O)cc1; Pro(3S-OH,4S-Me) = C[C@H]1CN[C@H](C(=O)O)[C@H]1O; Hyp = O=C(O)[C@@H]1C[C@@H](O)CN1
# Key:
# [1] = system: C. albicans; test: In vitro susceptibility testing (CLSI M27-A3); type: cell-based; conditions: Candida albicans, 24 h
# Procedure: (§1) Strains. Ten clinical Candida strains were used for the in vivo treatment studies, including four C. albicans, three C. glabrata, and three C. parapsilosis strains (Table 18). This group was selected to encompass phenotypic variability in susceptibility to triazoles and echinocandins and based on similar fitness in the animal model as defined by the amount of growth in control animals over 24 h. The organisms were maintained, grown, and quantified on Sabouraud's dextrose agar (SDA) plates.
# (§2) In vitro susceptibility testing. All isolates were tested in accordance with the standards in CLSI document M27-A3. The MICs were determined visually after 24 h of incubation as the lowest concentration of drug that causes a significant diminution (≥50%) of growth compared to controls. MICs were determined on three separate occasions in duplicate.
# [2] = system: C. glabrata; test: In vitro susceptibility testing (CLSI M27-A3); type: cell-based, Candida glabrata; conditions: Nakaseomyces glabratus, 24 h
# Procedure: as §1, §2
# [3] = system: C. parapsilosis; test: In vitro susceptibility testing (CLSI M27-A3); type: cell-based, Candida parapsilosis; conditions: Lodderomyces parapsilosis, 24 h
# Procedure: as §1, §2
# [4] = system: A. fumigatus (ATCC 13073); test: Disseminated infection of immune competent DBA/2 mice, prophylaxis, survival; type: in vivo, Aspergillus fumigatus; conditions: 3 mg/kg IP 1 hour after infection
# Procedure: (§3) A. fumigatus (ATCC 13073) growth was taken from 96 hour potato dextrose agar (PDA) and re-suspended in 0.1% Tween 20. The culture was resuspended in 1 mL cold PBS (>1.0×10^8 CFU/mL, OD620 2.3-2.8). The culture was then diluted in PBS to final cellular densities of 1.0×10^7 CFU/mL. The actual colony counts were determined by plating dilutions on PDA plates to confirm inoculation concentration. The actual inoculum count was 1.30×10^7 CFU/mL.
# Groups of 6 immune competent female DBA/2 mice weighing 18±2 g were used. On Day 0, animals were inoculated (0.1 mL/mouse) by intravenous (IV) injection into the tail vein with A. fumigatus (ATCC 13073), 1.30×10^6 CFU per mouse. CD101 at 3, 10 and 30 mg/kg as prophylaxis was administered subcutaneously (SC) once starting 5, 3 or 1 day before inoculation. In addition, CD101 at 3 mg/kg SC and the reference, amphotericin B, at 3 mg/kg by intraperitoneal (IP) injection were administered one hour after infection (See Table 2).
# (§4) A 50 percent or more (≥50%) increase in the survival rate compared to the vehicle control group indicates significant anti-infective activity. The health observations including body weight, hunched posture, ruffled fur, immobility and hypothermia were recorded daily for 14 days.
# [5] = system: Candida auris; test: Murine model of disseminated candidiasis (immunosuppressed CD-1 mice), treatment; type: in vivo; conditions: 0.3 mg/kg IP, 2 doses; Day 14
# Procedure: Female 6-8 week old CD-1 mice were immunosuppressed with cyclophosphamide (200 mg/kg) 3 days prior to infection and 150 mg/kg 1 day post-infection. On the day of infection, mice were inoculated with 3×10^7 C. auris blastospores via the lateral tail vein. Mice were randomized into 5 groups (n=5 for colony forming units (CFU) and n=10 for survival): CD101 20 mg/kg administered by intraperitoneal (IP) injection, fluconazole 20 mg/kg administered per os (PO), amphotericin B 0.3 mg/kg IP, and a vehicle control. Treatments were administered 2 hours post-infection (Day 1) and again on Day 4 of the study for a total of 2 doses. Mice were monitored daily and a survival curve was generated. CFU groups were sacrificed on Day 8 of the study. One kidney was removed from each mouse, homogenized, plated on potato dextrose agar (PDA), and incubated at 35° C. for 2 days to determine CFU. The remaining survival mice were monitored until the end of the study (Day 14).
# [6] = system: A. fumigatus (ATCC 13073); test: Disseminated infection of neutropenic ICR mice, prophylaxis, survival; type: in vivo, Aspergillus fumigatus; conditions: 3 mg/kg IP 1 hr after infection
# Procedure: as §3, with “Inoculum Preparation. A.” for “A.”, “hr” for “hour”, “2.0×10^5” for “1.0×10^7”, “1.85×10^5” for “1.30×10^7”
# A. fumigatus (ATCC 13073) disseminated infection (IV). Groups of 6 female ICR mice weighing 22±2 g were used. Animals were immunosuppressed by three intraperitoneal (IP) injections of cyclophosphamide (the first at 6 mg/mouse 3 days before inoculation, the second and third at 2 mg/mouse on Day 1 then Day 4 after inoculation). On Day 0, animals were inoculated (0.1 mL/mouse) by intravenous (IV) injection into the tail vein with A. fumigatus (ATCC 13073), 1.85×10^4 CFU per mouse. CD101 at 5, 10 and 20 mg/kg as prophylaxis was administered subcutaneously (SC) once starting 5, 3 or 1 day before inoculation. […]
# as §4, with “days. Animals found moribund were to be humanely sacrificed with CO2 asphyxiation in the study.” for “days.”
# [7] = system: A. fumigatus AF293; test: Pulmonary aspergillosis in neutropenic ICR mice (Examples 14, 15), prophylaxis, survival; type: in vivo, Aspergillus fumigatus
# Procedure: Pulmonary aspergillosis: ICR mice (10/grp) were made neutropenic by cyclophosphamide on Day −4 (150 mg/kg), and CPM/cortisone on Day −1 (150/175 mg/kg). Intranasal infection with A. fumigatus AF293 (10^5 CFU/mouse) on Day 0. Prophylaxis CD101 as a single dose (IP; 5, 10, 20 mg/kg) or posaconazole (PO; 2 and 10 mg/kg) 1 day prior to infection. Survival monitored for 10 days.
# Pulmonary aspergillosis: ICR mice (10/grp) were made neutropenic by cyclophosphamide on Day −4 (150 mg/kg), and cyclophosphamide/cortisone was given on Day −1 (150/175 mg/kg). Intranasal challenge with A. fumigatus AF293 (10^5 CFU/mouse) was initiated on Day 0 and prophylaxis with CD101 as a single dose (IP; 5, 10, 20 mg/kg) or posaconazole (PO; 2 and 10 mg/kg) was started 1 day prior to infection. Survival was monitored for 10 days.
# [8] = system: Aspergillus fumigatus strain AF293; test: Murine model of pulmonary aspergillosis (Example 16), survival and lung burden; type: in vivo; conditions: for Group Geometric mean / Log10 Group Geometric mean / Log10 reduction from vehicle control: terminal lung burden
# Procedure: Animal strain and housing. Mice used in these studies were supplied by Charles River (Margate UK) and were specific pathogen free. The strain of mice used was ICR (also known as CD1 Mice) which is a well characterized outbred murine strain. Male mice were 11-15 g on receipt and allowed to acclimatize for at least 7 days.
# Immunosuppression. Mice were immunosuppressed on Day −4 with 150 mg/kg cyclophosphamide administered intraperitoneally (IP), and on Day −1 with 150 mg/kg cyclophosphamide IP and 175 mg/kg cortisone acetate administered subcutaneously (SC). To prevent bacterial infection due to the immunosuppression mice were given once daily 50 mg/kg ceftazidime.
# Preparation of Organism and Infection. A. fumigatus strain AF293 inoculum was prepared from spore cultures grown on Sabouraud Dextrose agar (SAB) containing 50 μg/mL chloramphenicol (SABC) in vented tissue culture flasks. Following incubation for 7-10 days at 30° C., spore cultures were washed in sterile phosphate buffered saline (PBS) containing 0.05% Tween 80. Spore count was determined using a haemocytometer and spores were diluted in PBS to ˜6.9×10^6 CFU/mL. Inoculum concentration was confirmed by quantitative culture onto SABC agar.
# Neutropenic mice lungs were infected with 0.04 mL (0.02 mL/nare) of ˜4.17×10^6 CFU/mL (˜1.67×10^5 CFU/mouse) of A. fumigatus AF293 by intranasal (IN) instillation under temporary 2.5% isoflurane induced anesthesia.
# Preparation of Test Articles. Micafungin (Mycamine, Astellas) was provided as a 50 mg vial (Lot 02323002, expiry 08/2017) and was prepared as per manufacturer's instructions by adding 5 mL saline for injection (SFI) directly into the vial to make up a 10 mg/mL stock solution. This solution was then diluted further in SFI to a working concentration of 0.5 mg/mL. […] It was prepared fresh once and stored at 4° C. until required.
# Posaconazole (Noxafil 40 mg/mL oral suspension, Merck Sharp & Dohme Limited) was provided as a 40 mg/mL oral suspension (Lot N00801, expiry 04/2019). This suspension was then diluted further in water for infection (WFI) to a working concentration of 0.2 and 1 mg/mL. The suspension was administered orally (PO) at 10 mL/kg for 2 and 10 mg/kg doses respectively, was prepared fresh once and stored at 4° C. until required.
# Test article CD101 stock was prepared at 6 mg/mL in 10% DMSO/1% Tween 20 diluent. A clear non particulate solution was obtained following gentle mixing. […] All doses were administered IP at 10 mL/kg. The study doses were kept at 4° C. until required.
# Treatment. For this study, treatments were initiated on Day 1 pre infection according to treatment groups outlined in Table 22. A total of 36 mice (6/treatment group) were used in the study.
# Endpoints. The primary endpoint for this study was survival within agreed ethical limits (>20% weight loss, severe hypothermia <34° C., inability to reach food or drink, severe hunching). Mice were monitored by daily weight measurements with observations as frequently as clinical condition required.
# Mice presenting with severe clinical deterioration were humanely euthanized using an overdose of pentobarbitone administered by IP injection following clinical assessment and the time of death was recorded. Animal carcasses were stored at −20° C. before quantitative assessment of burden.
# Ten days post infection all surviving animals were weighed and had their clinical condition assessed prior to being euthanized. Final survival numbers were recorded and analysed as described below and carcasses frozen at −20° C. prior to further processing.
# Lung burden. A secondary endpoint for the study was terminal lung tissue burden. Immediately following confirmation of death, carcasses were frozen at −20° C. prior to tissue dissection and processing. The frozen carcasses were thawed at room temperature, the lungs removed and placed into pre-weighed bead-beating tubes containing 2 mL of PBS and subjected to mechanical disruption. […]
smiles,measurement,setting,value
"CCCCCOc1ccc(-c2ccc(-c3ccc(C(=O)N[C@H]4C[C@@H](O)[C@@H](O)NC(=O)[C@@H]5[C@@H](O)[C@@H](C)CN5C(=O)[C@H]([C@@H](C)O)NC(=O)[C@H]([C@H](O)[C@@H](O)c5ccc(O)cc5)NC(=O)[C@@H]5C[C@@H](O)CN5C(=O)[C@H]([C@@H](C)O)NC4=O)cc3)cc2)cc1 [Anidulafungin, anidulafungin, reference compound] ({pTerphenylCO(4''-OnC5H11)}-[Orn(4R-OH,5R-OH)]T[Hyp][hTyr(3S-OH,4S-OH)]T[Pro(3S-OH,4S-Me)]; lactam 1-C)",MIC,[1]; strain 98-17,0.03 µg/mL
same,MIC,[1]; strain 98-210,0.015 µg/mL
same,MIC,[1]; strain 580,0.015 µg/mL
same,MIC,[1]; strain K-1,0.015 µg/mL
same,MIC,"[2]; strain 5592, read-out: MIC",0.06 µg/mL
same,MIC,[2]; strain 10956 (FKS2_HS1_F659V),1 µg/mL
same,MIC,"[2]; strain 35315, read-out: MIC",0.25 µg/mL
same,MIC,[3]; strain 20423.072,1 µg/mL
same,MIC,[3]; strain 20477.048,2 µg/mL
same,MIC,[3]; strain 20519.069,4 µg/mL
"C[C@@H]1[C@H](O)[C@@H](C)/C=C/C=C/C=C/C=C/C=C/C=C/C=C/[C@H](O[C@@H]2O[C@H](C)[C@@H](O)[C@H](N)[C@@H]2O)C[C@@H]2O[C@](O)(C[C@@H](O)C[C@@H](O)[C@H](O)CC[C@@H](O)C[C@@H](O)CC(=O)O[C@H]1C)C[C@H](O)[C@H]2C(=O)O [amphotericin B, reference compound]",14-day survival,[4],significant increase in the 14-day survival
same,percent survival at the end of the study,[5],30%
same,14-day survival,[6],significant increase in the 14-day survival
"CC[C@@H]([C@H](C)O)n1ncn(-c2ccc(N3CCN(c4ccc(OC[C@@H]5CO[C@@](Cn6cncn6)(c6ccc(F)cc6F)C5)cc4)CC3)cc2)c1=O [Posaconazole, posaconazole]",survival rate,"[7]; 2 mg/kg PO one day prior to infection, 10 days",no survivors
same,survival rate,"[7]; 10 mg/kg PO one day prior to infection, vs control",statistically-significant increase in survival rate relative to control
same,Mean Survival,"[8]; 2 mg/kg PO once, Day −1",77.5 h
same,Median Survival,"[8]; 2 mg/kg PO once, Day −1",69.0 h
same,"survival time post infection, range","[8]; 2 mg/kg PO once, Day −1",69 to 114 h
same,survival vs vehicle (conclusion),[8]; 2 mg/kg once one day pre-infection,did not show any improvement in survival
same,Mean Survival,"[8]; 10 mg/kg PO once, Day −1",212 h and 211.5 h
same,Median Survival,"[8]; 10 mg/kg PO once, Day −1",could not be estimated; also recorded: cannot estimate
same,"survival time post infection, range","[8]; 10 mg/kg PO once, Day −1",69 to 240 h
same,mice that survived to the end of the study,"[8]; 10 mg/kg PO once, Day −1, 6 mice per group, 10 days",5 mice
same,mice surviving to the end of the study,[8]; 10 mg/kg once 1 day pre-infection,> 80%
same,Group Geometric mean,[8]; 2 mg/kg PO Day −1,1.14 × 10^4 CFU/g
same,Log10 Group Geometric mean,[8]; 2 mg/kg PO Day −1,4.06 CFU/g
same,Log10 reduction from vehicle control,[8]; 2 mg/kg PO Day −1,0.11 CFU/g
same,Group Geometric mean,[8]; 10 mg/kg PO Day −1,2.75 × 10^3 CFU/g
same,Log10 Group Geometric mean,[8]; 10 mg/kg PO Day −1,3.44 CFU/g
same,Log10 reduction from vehicle control,[8]; 10 mg/kg PO Day −1,0.73 CFU/g
